Peptide text beside a SMILES is read from it.
Legend:
[1] = biological target: ALK1; conditions: read-out: affinity of ALK1 for BMP9; cited from earlier work
Method: (§1) It is intriguing why the same peptide could promote BMP9 signalling in PAECs while inhibit BMP4 signalling in HMECs, an effect which is also recapitulated in the SPR binding studies (Fig. 4A–D, Supplemental Fig. 4). Whilst it is difficult to provide a direct structural explanation, this may relate to the difference in affinities and concentrations of the receptors for the ligands. ALK1 binds BMP9 with affinity of around 0.03 nM[8]. The reported KD values of BMP4 for ALK3 (with ALK3 expressed from different host cells) are 1–10 nM[30],[31]. It is plausible that the inhibitory effect of P3 on BM ...

[2] = test system: Smad1/5 phosphorylation in HMEC-1; test: BMP4-induced Smad1/5 phosphorylation in HMEC-1; type: cell-based, human; conditions: peptide 250 μM, BMP4 0.3 ng/ml (11.54 pM GFD dimer), N = 3
[3] = test system: ALP activity in C2C12 cells; test: BMP9-induced ALP activity in C2C12 cells; type: cell-based, mouse; conditions: peptide 160 μM with BMP9, 65 h, DMEM 0.25% FBS, three independent experiments in duplicate
Method: C2C12 mouse myoblasts were seeded in 24-well plates at 25,000 cells/well with antibiotics for 48 h. Treatments were performed in DMEM, 0.25% FBS with antibiotics in a final volume of 1.1 ml for 65 h. Cells were harvested and lysed in 1% Triton-X100 in PBS and the extracted total protein was quantified by Bio-Rad DC^TM protein assay (Bio-Rad). ALP activity was determined by incubating 15 μg of the total protein with ALP substrate p-nitrophenyl phosphate (PNPP, Sigma-Aldrich) and absorbance of the product p-nitrophenol (PNP) was recorded at 405 nm in 5 min intervals for 1 h. The relative ALP activity was expressed as fold change to the BMP9-treated control with data presented as means ± S.E.

[4] = test system: BMP4 binding to ALK3-Fc; test: SPR, BMP4 binding to ALK3-Fc in the presence of peptide; conditions: BMP4 50 nM, peptide 0.25-1 mM, compared with P3
Method: Peptide-receptor binding assays were performed using Biacore T200 biosensor (Biacore/GE Healthcare). ALK1-Fc, ALK2-Fc or ALK3-Fc was covalently linked onto individual flow cells of a research grade CM5 chip (GE Healthcare) via amine-coupling using standard manufacturer’s protocol. One flow cell was used as a control for subtracting non-specific binding. Peptides were injected over the immobilised chip at various concentrations up to 1 mM at a flow rate of 30 μl/min for 3 min at 37 °C in running buffer containing 0.01 M HEPES, 0.5 M NaCl, 3 mM EDTA and 0.005% v/v Surfactant P20 (pH 7.4). At the end of each peptide injection, the chip surface was regenerated with 4 M Guanidine hydrochloride (GnHCl). The biotinylated peptide P3* was immobilised onto a streptavidin (SA) chip (GE Healthcare) following the manufacturer’s protocol. Binding assays were carried out using a similar protocol as described above, only with a different injection time of 4 min. For BMP9-ALK1 and BMP4-ALK3 binding assays, BMP9 and BMP4 were added at 50 nM alone or in the presence of peptide P3 or P3r at 0.25 mM, 0.5 mM or 1 mM. Each cycle was set with a dissociation time of 12 min. Duplicated injections were performed for each ligand along with buffer blanks. The equilibrium dissociation constant KD was determined by fitting the data to a steady-state model using BIAevaluation software (GE Healthcare). […]

[5] = test system: Smad1/5 phosphorylation in hPAECs; test: BMP9-induced Smad1/5 phosphorylation assay in hPAECs (immunoblot); type: cell-based, human; conditions: BMP9 0.03 ng/ml (1.24 pM GFD dimer), peptide 250 μM (P3 also dose-dependent), 40 min, serum-starved, immunoblot densitometry
Method: Endothelial cells were seeded in 6-cm dishes at 9 × 10^5 cells/dish and cultured for 24 hours (h) to full confluence, and then serum-starved for 16 h before treatments with control buffer, BMP9 alone, BMP9 with peptides, or peptides alone. After 40 min, cells were washed once with PBS and snap-frozen on dry ice to harvest. Cells were then lysed with buffer containing 125 mM Tris-HCl (pH 6.8), 2% SDS and 10% glycerol. The total protein concentration was determined using the DC^TM protein assay (Bio-Rad), of which 30 μg of total cell proteins was fractionated on 12% SDS-PAGE under non-reducing condition. The phosphorylation of Smad1/5 and total Smad1 were detected by anti-phospho-Smad1/5 antibody (9516 S) and anti-Smad 1 antibody (9743 S). The intensity of pSmad1/5 bands were quantified using ImageJ software, using β-actin or α-tubulin as the loading control.

[6] = biological target: ALK3; conditions: ALK3 expressed from different host cells; read-out: KD values of BMP4 for ALK3; cited from earlier work
Method: as §1

## BMP9: bone morphogenetic protein 9, growth factor
[1]
  Kd: ~0.03 nM

## CC[C@H](C)[C@H](NC(=O)[C@H](CC(=O)O)NC(=O)[C@@H](NC(=O)[C@@H](NC(=O)[C@H](CCCCN)NC(=O)[C@H](Cc1ccccc1)NC(=O)[C@@H](NC(=O)[C@H](CCCCN)NC(=O)[C@H](CC(=O)O)NC(=O)[C@H](CC(C)C)NC(=O)[C@H](CCC(N)=O)NC(=O)[C@H](C)NC(=O)[C@@H]1CCCN1C(=O)[C@@H](NC(=O)[C@@H](NC(=O)[C@H](CS)NC(=O)[C@@H](NC(=O)[C@@H]1CCCN1)[C@@H](C)O)[C@@H](C)O)[C@@H](C)O)C(C)C)[C@@H](C)O)[C@@H](C)O)C(=O)N[C@@H](Cc1c[nH]cn1)C(=O)N[C@@H](Cc1ccccc1)C(=O)N[C@@H](CS)C(=O)N[C@@H](Cc1c[nH]cn1)C(=O)N[C@@H](CC(C)C)C(=O)O [Peptide P3r] (H-PTCTTPAQLDKVFKTTDIHFCHL-OH; N-terminus and C-terminus assumed)
[2]
  effect on BMP4-induced Smad1/5 phosphorylation in HMEC-1: failed to inhibit
[3]
  effect on BMP9-induced ALP activity in C2C12 cells: No difference
[4]
  competing BMP4 binding to ALK3 (in words): much less effective
[5]
  effect on BMP9-induced Smad1/5 phosphorylation in hPAECs: significantly enhanced

## BMP4: bone morphogenetic protein 4, growth factor
[6]
  Kd: 1 to 10 nM

Reference: article PMC6748948, “A Bone Morphogenetic Protein (BMP)-derived Peptide Based on the Type I Receptor-binding Site Modifies Cell-type Dependent BMP Signalling” (Scientific Reports, 2019)
